Tests used:
BT-474 Tam1 [1] = assay: drug sensitivity score (DSS) (DSS (dimensionless)); higher = more sensitive; extreme values may be limits of the assay; conditions: 4-OH-tamoxifen in medium 1 µM; 72 h
Description: (§1)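 FIMM FO2B library drugs were tested at 5 concentrations (10,000-fold range) for 72 h, with CellTiter-Glo viability normalised to DMSO and benzethonium chloride controls. The Drug Sensitivity Score (DSS) is computed from the fitted logistic dose-response curve (area-based; 0 = inactive). Resistant lines and the 'in 1µM tamoxifen' arms were tested in 1 µM 4-OH-tamoxifen.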

BT-474 Tam2 [2] = assay: as above; conditions: 4-OH-tamoxifen in medium 1 µM; 72 h
Description: as §1

BT-474 [3] = assay: as above; conditions: 72 h
Description: as §1

MCF-7 Tam1 [4] = assay: as above; conditions: 4-OH-tamoxifen in medium 1 µM; 72 h
Description: as §1

MCF-7 [5] = assay: as above; conditions: 72 h
Description: as §1

T-47D Tam1 [6] = assay: as above; conditions: 4-OH-tamoxifen in medium 1 µM; 72 h
Description: as §1

T-47D Tam2 = assay: as above; conditions: 4-OH-tamoxifen in medium 1 µM; 72 h
Description: as §1

T-47D [7] = assay: as above; conditions: 72 h
Description: as §1

ZR-75-1 Tam1 [8] = assay: as above; conditions: 4-OH-tamoxifen in medium 1 µM; 72 h
Description: as §1

ZR-75-1 Tam2 [9] = assay: as above; conditions: 4-OH-tamoxifen in medium 1 µM; 72 h
Description: as §1

ZR-75-1 [10] = assay: as above; conditions: 72 h
Description: as §1

BT-474 Tam1 [11] = assay: relative IC50 (midpoint of fitted logistic curve, plateau may be below 50% inhibition; CellTiter-Glo viability); higher = less potent; conditions: 4-OH-tamoxifen in medium 1 µM; 72 h
Description: (§2)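 FIMM FO2B library drugs were plated at 5 concentrations spanning a 10,000-fold range in 384-well plates. Cells were incubated for 72 h at 37 °C and viability was read by CellTiter-Glo, normalised to DMSO (0% inhibition) and 100 µM benzethonium chloride (100% inhibition). IC50 values come from logistic dose-response fits (Breeze pipeline). Tamoxifen-resistant lines and the 'in 1µM tamoxifen' parental arms were tested in medium with 1 µM 4-OH-tamoxifen.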

MCF-7 Tam1 [12] = assay: as above; conditions: 4-OH-tamoxifen in medium 1 µM; 72 h
Description: as §2

MCF-7 [13] = assay: as above; conditions: 72 h
Description: as §2

T-47D Tam1 [14] = assay: as above; conditions: 4-OH-tamoxifen in medium 1 µM; 72 h
Description: as §2

T-47D [15] = assay: as above; conditions: 72 h
Description: as §2

ZR-75-1 Tam1 [16] = assay: as above; conditions: 4-OH-tamoxifen in medium 1 µM; 72 h
Description: as §2

ZR-75-1 Tam2 [17] = assay: as above; conditions: 4-OH-tamoxifen in medium 1 µM; 72 h
Description: as §2

ZR-75-1 [18] = assay: as above; conditions: 72 h
Description: as §2

BT-474 Tam2 [19] = assay: as above; conditions: 4-OH-tamoxifen in medium 1 µM; 72 h
Description: as §2

BT-474 [20] = assay: as above; conditions: 72 h
Description: as §2

relative IC50 (BT-474 Tam1 [11]) [nM] | relative IC50 (MCF-7 Tam1 [12]) [nM] | relative IC50 (MCF-7 [13]; 4-OH-tamoxifen in medium 0 µM) [nM] | relative IC50 (MCF-7 [13]; 4-OH-tamoxifen in medium 1 µM) [nM] | relative IC50 (T-47D Tam1 [14]) [nM] | relative IC50 (T-47D [15]; 4-OH-tamoxifen in medium 0 µM) [nM] | relative IC50 (BT-474 Tam2 [19]) [nM] | relative IC50 (BT-474 [20]; 4-OH-tamoxifen in medium 0 µM) [nM] | relative IC50 (BT-474 [20]; 4-OH-tamoxifen in medium 1 µM) [nM] | relative IC50 (T-47D [15]; 4-OH-tamoxifen in medium 1 µM) [nM] | Structure (SMILES) | drug sensitivity score (BT-474 Tam1 [1]) | drug sensitivity score (BT-474 Tam2 [2]) | drug sensitivity score (BT-474 [3]; 4-OH-tamoxifen in medium 0 µM) | drug sensitivity score (BT-474 [3]; 4-OH-tamoxifen in medium 1 µM) | drug sensitivity score (MCF-7 Tam1 [4]) | drug sensitivity score (MCF-7 [5]; 4-OH-tamoxifen in medium 0 µM) | drug sensitivity score (MCF-7 [5]; 4-OH-tamoxifen in medium 1 µM) | drug sensitivity score (T-47D Tam1 [6]) | drug sensitivity score (T-47D Tam2) | drug sensitivity score (T-47D [7]; 4-OH-tamoxifen in medium 0 µM) | drug sensitivity score (T-47D [7]; 4-OH-tamoxifen in medium 1 µM) | drug sensitivity score (ZR-75-1 Tam1 [8]) | drug sensitivity score (ZR-75-1 Tam2 [9]) | drug sensitivity score (ZR-75-1 [10]; 4-OH-tamoxifen in medium 0 µM) | drug sensitivity score (ZR-75-1 [10]; 4-OH-tamoxifen in medium 1 µM) | relative IC50 (ZR-75-1 Tam1 [16]) [nM] | relative IC50 (ZR-75-1 Tam2 [17]) [nM] | relative IC50 (ZR-75-1 [18]; 4-OH-tamoxifen in medium 0 µM) [nM] | relative IC50 (ZR-75-1 [18]; 4-OH-tamoxifen in medium 1 µM) [nM]
> 1000 | > 1000 | 4.79 | 4.86 | 5.24 | 1.07 | – | – | – | – | CO[C@H]1C[C@@H]2CC[C@@H](C)[C@@](O)(O2)C(=O)C(=O)N2CCCC[C@H]2C(=O)O[C@H]([C@H](C)C[C@@H]2CC[C@@H](O)[C@H](OC)C2)CC(=O)[C@H](C)/C=C(\C)[C@@H](O)[C@@H](OC)C(=O)[C@H](C)C[C@H](C)/C=C/C=C/C=C/1C [Sirolimus (Rapamycin)] | 0 | 1.85 | 5.15 | 1.96 | 0 | 12.7 | 11.1 | 8.59 | 3.53 | 10.6 | 0.392 | 8.75 | 12.4 | 12.7 | 9.39 | 4.48 | 2 | 1.84 | 2.35
> 10000 | > 10000 | 3260 | – | > 10000 | – | > 10000 | > 10000 | > 10000 | > 10000 | CN(C)CCN1C(=O)c2cccc3cc(N)cc(c23)C1=O [Amonafide] | 0 | 0 | 0 | 0 | 0 | 2.63 | 0.126 | 0 | 0 | 0.496 | 0 | 0.0369 | 0.594 | 1.49 | 0.169 | – | – | 3510 | –
155 | > 10000 | – | > 10000 | > 10000 | > 10000 | > 10000 | > 10000 | – | > 10000 | COC(=O)c1ccc2c(c1)NC(=O)/C2=C(\Nc1ccc(N(C)C(=O)CN2CCN(C)CC2)cc1)c1ccccc1 [Nintedanib (BIBF 1120)] | 7.37 | 0 | 0 | 3.83 | 0 | 0.34 | 0 | 0 | 0.209 | 0 | 0 | 0 | 0 | 0 | 0 | – | > 10000 | > 10000 | > 10000
> 1000 | > 1000 | – | – | > 1000 | 60.4 | > 1000 | > 1000 | > 1000 | > 1000 | Nc1ccn([C@@H]2O[C@H](CO)[C@@H](O)C2(F)F)c(=O)n1 [Gemcitabine] | 0 | 0 | 0 | 0 | 0 | 5.69 | 0.509 | 0 | 0.815 | 4.36 | 0 | 0 | 0.493 | 6.28 | 0.865 | > 1000 | – | – | –
> 10000 | > 10000 | > 10000 | > 10000 | > 10000 | > 10000 | > 10000 | > 10000 | > 10000 | > 10000 | NC(=O)c1ccc(I)c([N+](=O)[O-])c1 | 0 | 0 | 0 | 0 | 0 | 0 | 0 | 0 | 0.229 | 0 | 0 | 0 | 0 | 0 | 0 | – | > 10000 | > 10000 | > 10000
86.3 | 52.7 | 6.68 | 8.94 | 7.44 | 27.8 | – | – | 60.9 | 117 | Cn1c(=O)n(-c2ccc(C(C)(C)C#N)cc2)c2c3cc(-c4cnc5ccccc5c4)ccc3ncc21 [Dactolisib (NVP-BEZ235)] | 4.98 | 4.69 | 6.54 | 5.55 | 3.91 | 18.3 | 11.4 | 13.4 | 4.46 | 10.4 | 7.65 | 12.4 | 12.6 | 12.9 | 10.4 | 7.16 | 13.9 | 9.3 | 9.17
– | > 10000 | > 10000 | – | > 10000 | – | > 10000 | > 10000 | > 10000 | > 10000 | Cc1ccc(Nc2nccc(N(C)c3ccc4c(C)n(C)nc4c3)n2)cc1S(N)(=O)=O [Pazopanib] | 0.0636 | 0 | 0 | 0 | 0 | 0 | 0.177 | 0 | 0.821 | 0.231 | 0 | 0 | 0.0921 | 0 | 0 | > 10000 | – | > 10000 | –

— the supplement of paper PMC4932681
